Test results: US8835617B2, “Polynucleotides encoding a human TRIM-Cyp fusion polypeptide, compositions thereof, and methods of using same” (priority 2008, dated 2014)

Experiments:
T5-mediated restriction = assay: Disruption of T5Cyp-mediated HIV-1 restriction by arsenic trioxide in CRFK cells; assay type: cell-based; settings: increasing amounts
Experimental: This drug was previously shown to inhibit T5-mediated restriction (Sebastian et al., 2006).
Puromycin was used at 1 μM.

CypA-CA interaction = settings: CsA 2.5 μM, CRFK; DEBIO-025 in Jurkat
Experimental: All chemicals were obtained from Sigma unless otherwise noted. Puromycin was used at 1 μM. […] Arsenic trioxide (As2O3) was made at 100 mM in 1N sodium hydroxide (NaOH) and then further diluted to 1 mM in phosphate buffered saline (PBS). pH was adjusted to 7.5 with hydrochloric acid and stored at 4° C.

arsenic trioxide [As2O3]
effect on AoT5Cyp and hT5Cyp restriction activity (T5-mediated restriction): blocked to the same extent

C/C=C/C[C@@H](C)[C@@H](O)[C@H]1C(=O)N[C@@H](CC)C(=O)N(C)[C@H](C)C(=O)N(CC)[C@@H](C(C)C)C(=O)N[C@@H](C(C)C)C(=O)N(C)[C@@H](CC(C)C)C(=O)N[C@@H](C)C(=O)N[C@H](C)C(=O)N(C)[C@@H](CC(C)C)C(=O)N(C)[C@@H](CC(C)C)C(=O)N(C)[C@@H](C(C)C)C(=O)N1C [DEBIO-025]
effect on HIV-1 restriction by AoT5Cyp and hT5Cyp (CypA-CA interaction): Equivalent results
